Assay results published in patent US9913858B2, “Prevention and treatment of toxicosis” (priority 2013, dated 2018).

What was measured:
[1] = Serum and cerebrospinal fluid bromide concentrations in the sheep trial; format: in vivo; settings: sheep, sheep
Protocol: Venous blood samples collected for biochemical analysis and haematocrit (PCV), and urine for USG, at three specific time points during the experiment for all animals: 1) on entry to the trial; 2) on date of entry to the end of trial protocol and, 3) on day of necropsy.
A full clinical examination was performed prior to euthanasia. At euthanasia, 100 I.U. heparin (Provet Riverina Pty Ltd) was injected into the jugular vein, followed shortly by Lethabarb (20 mL/40 kg LW). Immediately after euthanasia, the ventral articulation of C1 was exposed and cerebrospinal fluid (CSF) collected using a 23 g needle. The head was then removed and subjected to perfusion fixation. Briefly, the carotid arteries were exposed and a small catheter inserted and ligated to secure the perfusion lines. Two liters of 0.1% phosphate buffered saline (PBS) containing 3000 I.U of heparin/L was then slowly perfused via the ligated vessels at a pressure of 90 mm Hg using a Microgon peristaltic Pump (Microgon, Laguna Hills, Calif.). Once complete this was replaced with 4% paraformaldehyde (Sigma-Alrich) in 0.1% PBS and a further two liters allowed to perfuse slowly through the tissues of the head. Once complete, catheters were removed and the whole head placed at 4° C. overnight to complete fixation. Twenty-four hours post perfusion fixation the brain was removed from the skull and placed in 10% formal saline for storage until dissection for processing to wax sections.
Absorbance was measured with a spectrophotometer at 440 nm. […] The lower limit of quantification (LOQ) was 25 μg/mL.

[2] = tested on: sheep; settings: 120 mg/kg bromide
Protocol: KBr solution was administered via an orogastric tube, then flushed with 500 mL water. Blood samples were collected at 0, 1, 2, 3, 4, 6, 8, 10, 12, 24 h, then at 12 h intervals to 240 h, then at 24 h intervals to 336 h. A final sample was taken at 504 h. When collecting blood samples at 1 h through to 10 h the rumen was auscultated, over the caudo-dorsal blind sack, to determine if the high salt load affected rumen motility.

[3] = tested on: lolitrem B toxicosis (Rye Grass Staggers); assay: Gait analysis and time to falling; format: in vivo, sheep
Protocol: Gait analysis was performed on entry to the trial and at designated time points throughout the trial as described above. To achieve this, animals were moved from their individual pens to an external yard in their cohort groups (five animals, one from each treatment). Animals were then encouraged to move at a run, initially in a group and then individually, for a minimum of three minutes per animal whilst their movement was captured on video and gait observations recorded.
Once all animals had been analysed the whole cohort was returned to their individual pens. Gait abnormalities such as stumbling, falling or disorientation were noted, including observation of Type 1 or Type 2 gait changes as described in Combs et, al., (2014). Type I movement disorder is defined as an impaired alternating movement (dysdiadochokinesia), bunny-hopping gait and failure to maintain an appropriate direction. Type 2 movement disorder is defined by increasing rigidity of limbs on forced movement resulting finally in tonic fore and hind limb extension with the animal collapsing into sternal or lateral recumbency (Combs, Rendell et at 2014). Scores between those denoted above were considered as a gradation between the stated clinical observations. Analysis of gait was performed using the following scale in Table 2 and a composite score noted for each animal for each day during the end of trial protocol. A total score out of 30 was determined for each animal. The higher the score the greater the locomotory disturbance. Time to falling was determined post trial by analysis of video material,
Animals that met the entry criteria (severe Type 2 gait abnormality and falling) were submitted to the end-of-trial protocol. […] Animals were subjected to the following tests on days 1 and 3: gait analysis, full neurological examination, venous blood and urine sampling and EMG. Only gait analysis was performed on day 2.

[4] = tested on: lolitrem B toxicosis (Rye Grass Staggers); assay: Clinical and neurological signs in sheep fed lolitrem B-containing toxic feed with or without potassium bromide; format: in vivo; settings: sheep, Group 5: prophylactic oral KBr only
Protocol: Animals were exposed to a controlled diet containing 0.16 mg/kg body weight (BW) lolitrem B toxin rising to 0.27 mg/kg BW after 21 days exposure to toxic feed. Toxin was delivered as perennial rye grass seed (GA66 AR98, Grasslanz Technology Ltd, NZ) containing very high levels of lolitrem B toxin (11 ppm DM) as a component of the animal's feed intake.
On entry to the trial, all animals receiving toxic feed were exposed to a diet containing experimental ryegrass seed with a final lolitrem B concentration of 0.08 mg/kg LW, lucerne chaff and molasses 30% w/v for 3 days. After this induction period, the toxin content of the feed was increased to 0.16 mg/kg LW for the duration of the trial. […] Ryegrass seed constituted up to 65% of available Feed on Offer (FOO) by dry weight contributing a metabolisable energy of 12.1 Mj/kg DM.
At entry to the trial, all animals were subjected to a full clinical examination. Live weight was recorded. Venous blood and urine samples were collected for laboratory. Animals were also subjected to gait analysis, neurological examination including proprioceptive testing, cranial nerve examination and papillary light and menace reflexes. Electromyography (EMG) of tricep and neck muscles was performed. Gait analysis (see below) was repeated at three day intervals until onset of significant clinical signs and/or gait abnormality at which point animals were subjected to gait analysis daily. Gait analysis was recorded on video each occasion.
General clinical signs were also noted on a daily basis; these included observations of nervousness or agitation, changes in normal placement of body, limb or head position changes in faecal consistency, feeding behaviour or water consumption, observeable tremor of the body or head, eye position (strabismus) and movement (nystagmus), locomotory disturbances, or any other clinical changes worthy of note. Feed and water intake was monitored daily for the duration of the trial. Heart rate, respiration rate at rest and rectal temperature were also monitored daily.
Prophylactic sheep received a split loading dose of 300 mg/kg on day 1, 120 mg/kg (100 mg LD+20 mg/kg daily maintenance dose) on day 2, 120 mg/kg on day 3 and 20 mg/kg daily for the duration of the trial. An acute treatment dose of 300 mg/kg LW was used for the trial. Both prophylactic and acute treatment doses were envisaged to give serum concentrations of 750 to 1000 μg/ml for the duration of the initial weeks of the trial.
Group 1—Negative Control: lucerne chaff only;
Group 2—Positive Control: lucerne chaff containing 0.16 mg/kg LW lolitrem B;
Prophylactic treatment sheep (Groups 4 & 5) received a split loading dose of 300 mg/kg on day 1 of the trial, 120 mg/kg (100 mg LD 20 mg/kg daily maintenance dose) on day 2, 120 mg/kg on day 3 and 20 mg/kg daily thereafter. Acute therapy sheep were dosed with a single dose of 300 mg/kg on day of falling.
End of the trial was defined for Groups 2 and 3 as date of falling. Group 1 animals entered the end of trial protocol with their Group 2 counterparts. Group 4 and 5 animals entered the end of trial protocol after 22 days. This end of trial protocol consisted of the following analysis: • On Day 1: animals were subjected to a full clinical examination, gait analysis, urine and blood collection, neurological examination and EMG. • On Day 2: further gait analysis was recorded, • On Day 3: animals were again subjected to full clinical examination, gait analysis, urine and blood collection, neurological examination and EMG as well as live weight recorded prior to necropsy.

SMILES: Br [bromide]
- Kp at 48 hours ([1]; cerebrospinal fluid and serum, oral, 300 mg/kg, mean ratio of serum bromide:CSF bromide, Group 3, acute bromide treatment plus lolitrem B, 48 hours): 0.81
- Kp at 22 days ([1]; cerebrospinal fluid and serum, oral, mean ratio of serum bromide:CSF bromide, Group 4, bromide prophylactic treatment plus lolitrem B): 0.91
- Kp at 22 days ([1]; cerebrospinal fluid and serum, oral, mean ratio of serum bromide:CSF bromide, Group 5, bromide prophylactic controls): 0.74
- serum bromide, factor Group 4 over Group 5 ([1]; prophylactic bromide plus lolitrem B versus prophylactic bromide alone, 22 days): 1.27
- adverse reactions ([2]; either treatment group (IV, PO)): No adverse reactions were noted
- tranquilising effect, subjective observation ([2]; IV group): mild tranquilising effect
- neurological effects ([2]; PO group): no discernable neurological effects
- rumen motility ([2]; PO group): no observed alteration
- time to falling ([3]; printed as Group 2 Day 2, 24 hours after single oral dose of bromide 300 mg/kg LW): 145.66 ± 22.07 s
- time to falling ([3]; printed as Group 2 Day 3, 48 hours after single oral dose of bromide 300 mg/kg LW): 124.75 ± 22.06 s
- time to falling ([3]; printed as Group 2 day 1, intoxicated sheep before single oral dose of bromide 300 mg/kg LW): 52.44 s
- animals showing evidence of mild anxiolysis [4]: 519
- Altered stance, number of animals affected ([4]; no toxic feed, 22 days): 4
- Fine tremor, number of animals affected ([4]; no toxic feed, 22 days): one
